Read-outs that look alike come from different tables or passages of the source.
Experiments:
[1] = Solubility testing in toluene at −30° C.
Excerpt: Solubility testing was undertaken using the estimate of Fe content from C/H/N analysis. […] This procedure assumes the products below to contain substantially only C, H and Fe. Masses of product(s) sufficient to provide the required concentration of iron as condensation products were weighed into screw-cap vials and made up to 10.00 g with toluene. The samples were capped, shaken or swirled until homogenous then sealed using Parafilm™. The vials were then kept in an ethylene glycol/water filled bath held at −30° C. and periodically inspected for the appearance of solids or separation of liquid phases. After at least one week solids were separated by rapid filtration and soluble products isolated by removal of solvent under vacuum. Following analysis of the solids, maximum and minimum solubilities were estimated from the mass balance.

[2] = Viscosity of 2.5 wt % iron solutions in toluene (Bohlin CVO rheometer); type: physicochemical; details: toluene solution at 2.5 wt % Fe
Description: Viscosities of 2.5 wt % iron solutions were determined using a Bohlin Instruments CVO rheometer using a 4° 40 mm cone and plate at shear rates of either 2 Pa or 0.5 Pa.

[3] = Fuel stability, in-house Test Method 1; details: additive 20 ppm iron
[4] = toluene, −30° C., at least one week

Compound	Solubility at −30° C., 2.5 wt % Fe (appearance) [1]	Solubility at −30° C., 5.0 wt % Fe (appearance) [1]	Solubility at −30° C., 2.5 wt % Fe (appearance) [1, 4]	Viscosity at −30° C. (mPas) [2] [mPas]	also measured
1,1-diferrocenyl 2-ethylhexane [Compound 4]	Clear	Clear	–	–	–
1,1-diferrocenyl cyclohexane [Compound 11]	–	–	Clear	4.8	Solubility of Fe as product ([1]; toluene, −30° C.): ~4.9 wt %; Solubility at −30° C., 5.0 wt % Fe (appearance) [1, 4]: Powder
1,1-diferrocenylpentane [Compound 7]	Clear	Clear	–	5.4	–
CC(C)C([c-]1cccc1)[c-]1cccc1.[Fe+2].[Fe+2].c1cc[cH-]c1.c1cc[cH-]c1 [Compound 5, 1,1-diferrocenyl-2-methyl propane]	–	–	Clear	–	–
[Fe+2].[Fe+2].c1cc[cH-]c1.c1cc[cH-]c1.c1ccc(CC([c-]2cccc2)[c-]2cccc2)cc1 [Compound 9, 1,1-diferrocenyl phenyl methane]	–	–	Clear	4.3	Solubility at −30° C., 5.0 wt % Fe (appearance) [1, 4]: Clear
O=C1CCCC(=O)C1 [Compound 12, 1,3-Cyclohexanedione]	Clear	Crystals	–	–	Solubility of Fe as product [1]: 3.6 to 4.1 wt % by mass balance
CC(=O)CCC(C)=O [Compound 15, Acetonyl acetone]	Powder	Powder	–	–	–
Iron tris(2-ethylhexanoate) [Octanoate]	–	–	–	–	fuel stability (conclusion) [3]: markedly lower stability
